Laboratory results reported in ChEMBL document CHEMBL4371080, “Multiple weak intercalation as a strategy for the inhibition of polymerases” (Bioorg Med Chem Lett, 2019).
Where a SMILES comes first, the peptide text is derived from it. Bridges are numbered along the chain shown (N, C = ends). [ ]: non-standard residue; d: D form. The star is where a group is joined. ξ: configuration not given here. Quinoxaline2carbonyl = O=C(c1cnc2ccccc2n1)*; ξDap = NCC(N)C(=O)O

Legend:
[1] = biological target: Human immunodeficiency virus type 1 reverse transcriptase (Human immunodeficiency virus 1) (UniProt Q72547); assay: Inhibition of HIV1 reverse transcriptase assessed as reduction in [3H]dTTP incorporation by measuring proportional residual activity ratio at 100 uM using poly(rA)/oligo(dT) as template/primer after 30 mins by scintillation counting method
[2] = biological target: T1, Human immunodeficiency virus type 1 reverse transcriptase (Human immunodeficiency virus 1, UniProt Q72547); assay: Inhibition of HIV1 reverse transcriptase assessed as reduction in [3H]dTTP incorporation using poly(rA)/oligo(dT) as template/primer after 30 mins by scintillation counting method
[3] = biological target: Human immunodeficiency virus type 1 reverse transcriptase (Human immunodeficiency virus 1) (UniProt Q72547); assay: Inhibition of HIV1 reverse transcriptase assessed as reduction in [3H]dTTP incorporation by measuring proportional residual activity ratio at 300 uM using poly(rA)/oligo(dT) as template/primer after 30 mins by scintillation counting method
[4] = biological target: T1, Human immunodeficiency virus type 1 reverse transcriptase; assay: Inhibition of HIV1 reverse transcriptase assessed as reduction in [3H]dTTP incorporation using poly(rA)/oligo(dT) as template/primer after 30 mins in presence of Triton-X-100 by scintillation counting method
[5] = biological target: T2, DNA polymerase alpha catalytic subunit (Homo sapiens) (UniProt P09884); assay: Inhibition of human DNA polymerase-alpha assessed as reduction in [3H]dTTP incorporation in to activated calf thymus DNA substrate at 600 uM after 30 mins by scintillation counting method relative to control
T2 sequence (whole entry): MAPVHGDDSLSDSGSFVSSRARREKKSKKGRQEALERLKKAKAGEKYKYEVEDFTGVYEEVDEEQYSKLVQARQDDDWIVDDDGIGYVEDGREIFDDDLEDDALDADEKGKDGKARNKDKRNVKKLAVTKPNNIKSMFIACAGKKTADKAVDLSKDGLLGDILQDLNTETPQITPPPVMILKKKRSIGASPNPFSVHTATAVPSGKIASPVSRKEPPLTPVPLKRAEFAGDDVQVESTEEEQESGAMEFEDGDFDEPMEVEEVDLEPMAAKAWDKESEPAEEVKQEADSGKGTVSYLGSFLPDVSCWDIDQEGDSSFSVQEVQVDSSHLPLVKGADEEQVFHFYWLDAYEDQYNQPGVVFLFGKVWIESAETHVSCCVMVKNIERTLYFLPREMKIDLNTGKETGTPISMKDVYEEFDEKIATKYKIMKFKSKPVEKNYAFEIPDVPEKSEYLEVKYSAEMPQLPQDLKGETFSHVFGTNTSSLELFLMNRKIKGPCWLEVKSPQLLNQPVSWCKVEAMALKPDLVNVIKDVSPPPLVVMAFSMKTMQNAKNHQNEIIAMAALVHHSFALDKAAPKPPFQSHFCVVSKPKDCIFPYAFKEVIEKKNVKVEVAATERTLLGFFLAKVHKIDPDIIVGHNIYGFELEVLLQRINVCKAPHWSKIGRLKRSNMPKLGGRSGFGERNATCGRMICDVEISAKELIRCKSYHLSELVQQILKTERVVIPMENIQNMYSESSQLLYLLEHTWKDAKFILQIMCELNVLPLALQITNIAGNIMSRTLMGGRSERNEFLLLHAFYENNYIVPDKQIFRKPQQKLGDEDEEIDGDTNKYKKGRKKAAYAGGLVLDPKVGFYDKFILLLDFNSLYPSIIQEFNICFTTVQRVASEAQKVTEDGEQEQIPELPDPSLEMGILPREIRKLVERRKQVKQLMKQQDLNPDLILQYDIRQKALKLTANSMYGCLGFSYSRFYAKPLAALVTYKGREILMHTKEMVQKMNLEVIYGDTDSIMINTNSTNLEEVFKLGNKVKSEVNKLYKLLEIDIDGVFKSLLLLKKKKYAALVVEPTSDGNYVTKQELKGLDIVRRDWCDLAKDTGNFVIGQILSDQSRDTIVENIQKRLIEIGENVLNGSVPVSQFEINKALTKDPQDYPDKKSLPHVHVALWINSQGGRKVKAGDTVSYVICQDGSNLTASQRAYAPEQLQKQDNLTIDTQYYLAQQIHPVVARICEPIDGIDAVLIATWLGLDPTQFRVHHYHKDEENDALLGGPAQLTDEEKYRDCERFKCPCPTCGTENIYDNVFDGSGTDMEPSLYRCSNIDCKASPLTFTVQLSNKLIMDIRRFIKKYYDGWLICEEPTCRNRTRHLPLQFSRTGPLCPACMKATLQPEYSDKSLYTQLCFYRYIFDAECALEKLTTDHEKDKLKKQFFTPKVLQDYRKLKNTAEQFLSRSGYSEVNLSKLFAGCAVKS

[6] = biological target: T1, Human immunodeficiency virus type 1 reverse transcriptase; assay: Inhibition of HIV1 reverse transcriptase assessed as reduction in [3H]dTTP incorporation using poly(rA)/oligo(dT) as template/primer after 30 mins in presence of calf thymus DNA by scintillation counting method
[7] = biological target: Human immunodeficiency virus type 1 reverse transcriptase (Human immunodeficiency virus 1) (UniProt Q72547); assay: Inhibition of HIV1 reverse transcriptase assessed as reduction in [3H]dTTP incorporation by measuring proportional residual activity ratio at 20 uM using poly(rA)/oligo(dT) as template/primer after 30 mins by scintillation counting method relative to control
[8] = biological target: Human immunodeficiency virus type 1 reverse transcriptase (Human immunodeficiency virus 1) (UniProt Q72547); assay: Ratio of IC50 for inhibition of HIV1 reverse transcriptase in presence of calf thymus DNA to IC50 for inhibition of HIV1 reverse transcriptase in absence of calf thymus DNA

NC(=O)[C@@H](Cc1c[nH]c2ccccc12)NC(=O)CCNC(=O)[C@H](N)Cc1c[nH]c2ccccc12
Ratio [1]: 0.39

NC(=O)[C@H](Cc1c[nH]c2ccccc12)NC(=O)CCNC(=O)[C@H](N)Cc1c[nH]c2ccccc12
IC50 [2]: 188 µM
Ratio [3]: 0.3

NC(=O)[C@H](Cc1c[nH]c2ccccc12)NC(=O)CCCNC(=O)[C@@H](N)Cc1c[nH]c2ccccc12
Ratio [1]: 0.55

COc1ccc2cc([C@H](C)C(=O)O)ccc2c1 [NAPROXEN SODIUM]
IC50 [2]: 6700 µM

O=C(O)c1cnc2ccccc2c1
IC50 [2]: 2400 µM

O=C(O)c1cnc2ccccc2n1
IC50 [2]: 320 µM

NC(=O)[C@@H](N)Cc1c[nH]c2ccccc12
IC50 [2]: 9900 µM
IC50 [4]: 15.7 mM

NC(=O)[C@@H](Cc1c[nH]c2ccccc12)NC(=O)CCCNC(=O)[C@@H](N)Cc1c[nH]c2ccccc12
Ratio [1]: 0.78

NCC1NC(=O)C[C@@H](C(N)=O)NC(=O)C(CNC(=O)c2cnc3ccccc3n2)NC(=O)CNC(=O)CNC(=O)CNC(=O)C(CNC(=O)c2cnc3ccccc3n2)NC1=O (stereo partly drawn) ([ξDap][ξDap](Quinoxaline2carbonyl)GGG[ξDap](Quinoxaline2carbonyl)D-NH2; lactam N-7)
IC50 [2]: 6.5 µM
inhibition [5]: 89%
IC50 [6]: 21.8 µM
Ratio [7]: 0.09
IC50 [4]: 0.007 mM
Ratio IC50 [8]: 3.5

NC(=O)[C@H](Cc1c[nH]c2ccccc12)NC(=O)CCNC(=O)[C@@H](N)Cc1c[nH]c2ccccc12
IC50 [2]: 227 µM
Ratio [3]: 0.25
